The target in test [1] is Tryptophan 2,3-dioxygenase (Homo sapiens, UniProt P48775). Kind of test: (§1) Biochemical Coupled Assay: Recombinant human IDO or TDO was incubated in 50 mM KPO4 (pH 7.0), 0.5 mM EGTA, 0.5 mM EDTA, 0.05% Triton™ X100, 20 mM ascorbate, 10 μM methylene blue, 500 U/ml catalase, 50 μg/ml KynB (kynurenine formamidase). TDO assays were carried out in the presence of 330 μM L-tryptophan, while IDO assays had the addition of 45 μM L-tryptophan. After incubation for 17 minutes at room temperature the reactions were stopped by the addition of Erhlich's reagent and incubated at room temperature for 5 minutes before the fluorescence was read.
Chain of Tryptophan 2,3-dioxygenase (P48775 whole entry): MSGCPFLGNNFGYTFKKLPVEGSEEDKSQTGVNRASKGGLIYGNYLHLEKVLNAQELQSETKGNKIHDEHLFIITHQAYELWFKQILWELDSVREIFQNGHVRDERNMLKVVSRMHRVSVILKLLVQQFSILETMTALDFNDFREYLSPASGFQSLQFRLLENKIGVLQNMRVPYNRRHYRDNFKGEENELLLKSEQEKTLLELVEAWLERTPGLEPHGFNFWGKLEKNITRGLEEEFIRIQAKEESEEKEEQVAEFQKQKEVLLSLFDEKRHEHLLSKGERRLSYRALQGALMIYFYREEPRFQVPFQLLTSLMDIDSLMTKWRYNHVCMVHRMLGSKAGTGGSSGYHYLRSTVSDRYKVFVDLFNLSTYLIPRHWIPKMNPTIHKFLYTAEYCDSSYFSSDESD

The target in test [2] is Indoleamine 2,3-dioxygenase 1 (Homo sapiens, UniProt P14902). Described as §1.
Chain of Indoleamine 2,3-dioxygenase 1 (P14902 whole entry): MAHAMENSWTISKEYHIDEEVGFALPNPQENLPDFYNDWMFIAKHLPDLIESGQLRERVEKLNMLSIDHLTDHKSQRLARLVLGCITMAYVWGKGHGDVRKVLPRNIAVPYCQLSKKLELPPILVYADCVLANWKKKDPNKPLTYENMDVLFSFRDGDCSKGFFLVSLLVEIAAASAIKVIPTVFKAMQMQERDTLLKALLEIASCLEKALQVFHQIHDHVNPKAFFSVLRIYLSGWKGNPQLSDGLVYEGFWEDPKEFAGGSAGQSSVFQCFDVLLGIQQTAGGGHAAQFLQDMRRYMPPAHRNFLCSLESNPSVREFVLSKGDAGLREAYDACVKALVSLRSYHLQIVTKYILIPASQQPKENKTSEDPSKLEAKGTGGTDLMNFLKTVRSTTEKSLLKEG

The IC50 is the concentration that inhibits the measured activity by half. Consider `CC1(C)CN(c2cc(Cl)cc3cncn23)CCC12NC(=O)NC2=O` (configuration not stated), for which the half-inhibitory concentration (IC50) in test [1] came out at 1590 nM; in test [2], 148 nM.

The values are drawn from ChEMBL document CHEMBL5728673, “Substituted imidazopyridine compounds as inhibitors of indoleamine 2,3-dioxygenase and/or tryptophan-2,3-dioxygenase” (2021).
